Data as given in the NIST ThermoML archive (doi:10.1016/j.jct.2011.12.019).
Numbers after ± are expanded uncertainties.

Assay: molar enthalpy of vaporization or sublimation
Conditions: 298.15 K, drop calorimetry

SMILES | molar enthalpy (Liquid) | molar enthalpy (Crystal)
N#Cc1ccc[nH]1 [2-cyanopyrrole;] | 15.6 ± 0.669 kcal/mol | –
Cc1ccc(C#N)n1C [1,5-dimethyl-2-pyrrolecarbonitrile] | – | 18.7 ± 0.765 kcal/mol
